Drawing on US20100120762A1, “Triazine derivatives as inhibitors of phosphodiesterases” (WYETH, priority 2008, published 2010), this text covers IC50 for 26 compounds.

For assay [1], the target named is T1, PDE10A1 (AB 020593) (Homo sapiens, UniProt Q9Y233).
T1 construct: made in house; host or cells: baculovirus / SF21 insect cells (gene synthesized by Entelechon GmbH)
Nature of the assay: Inhibition of recombinant PDE10A (baculovirus/SF21 system). It is filed as biochemical. As to conditions: recombinant cytosolic PDE10A, 0.1 μM [3H]-cAMP, 37° C., 30 minutes, SPA; read-out: PDE10A IC50. How it is done: The DNA of PDE10A1 (AB 020593, 2340 bp) was synthesized and cloned into the vector pCR4.TOPO (Entelechon GmbH, Regensburg, Germany). The gene was than inserted into a baculovirus vector, ligated with the baculovirus DNA. The enzyme-protein was expressed in SF21-cells. The enzyme was isolated from these cells by harvesting the cells by an centrifugation at 500 g to collect the cells.
The cells were resuspended in 50 mM Tris-HCl/1 mM EDTA/250 mM Sucrose buffer, pH=7.4 (Sigma, Deisenhofen, Germany; Merck, Darmstadt, Germany) and lysed by sonification of the cells (three times for 15 seconds, Labsonic U, Fa. Braun, Degersheim, Switzerland, level “high”). The cytosolic PDE10A was obtained by a centrifugation at 48,000 g for 1 h in the supernatant and stored at −70° C.
PDE activity was determined in a one step procedure in microtiter plates. The reaction mixture of 100 μl contained 50 mM Tris-HCl/5 mM MgCl2 buffer (pH=7.4, Sigma, Deisenhofen, Germany; Merck, Darmstadt, Germany) 0.1 μM [3H]-cAMP (Amersham, Buckinghamshire, UK) and the enzyme. Non-specific enzyme activity was determined without the enzyme. The reaction was initiated by addition of the substrate solution and was carried out at 37° C. for 30 minutes. Enzymatic activity then was stopped by addition of 25 μl Ysi-SPA-beads (Amersham-Pharmacia). One h later the mixture was measured in a liquid scintillation counter for microtiter plates (Microbeta Trilux). The Biomek 2000 (Beckman) was used routinely for pipetting of the incubation mixture. The optimal amount of enzyme in the assay has been determined and optimized for each enzyme preparation separately before using the enzyme in compound testing. For determination of IC50 values the Hill-plot, 2-parameter-model, was used.

Assay [2] deals with T2, PDE2A (NM002599) (Homo sapiens, UniProt O00408).
T2 construct: made in house; host or cells: baculovirus / SF21 insect cells
Put plainly: Inhibition of recombinant PDE2A (expressed in baculovirus/SF21-cells). In kind it is biochemical. As to conditions: recombinant PDE2A, 0.5 μM [3H]-cAMP, 1000 nM cGMP, 37° C., 30 minutes, SPA; read-out: PDE2A IC50. How it is done:
PDE2A (NM002599) was cloned and the gene was inserted in the baculovirus and the enzyme-protein expressed in SF21-cells. The enzyme was isolated from these cells by harvesting the cells by an centrifugation at 200 g to collect the cells. The cells were resuspended in 50 mM Tris-HCl/5 mM MgCl2 buffer (pH=7.4) (Sigma, Deisenhofen, Germany; Merck, Darmstadt, Germany) and lysed by a sonication of the cells (three times for 15 seconds, Labsonic U, Fa. Braun, Degersheim, Switzerland, level “high”). The membrane fraction of PDE2A was obtained by a centrifugation at 48 000 g for 1 h, resuspended in buffer and stored at −70° C.
PDE2A activity was determined in a one step procedure in microtiterplates. The reaction mixture of 100 μl contained 50 mM Tris-HCl/5 mM MgCl2 buffer (pH=7.4) (Sigma, Deisenhofen, Germany; Merck, Darmstadt, Germany), 0.5 μM [3H]-cAMP (Amersham, Buckinghamshire, UK), 1000 nM cGMP and the enzyme. Non-specific enzyme activity was tested in the absence of cGMP. The reaction was initiated by addition of the substrate solution and was carried out at 37° C. for 30 minutes. Enzymatic activity then was stopped by addition of 25 μl SPA-beads (Amersham-Pharmacia). One hour later the mixture was measured in a liquid scintillation counter for microtiterplates (Microbeta Trilux). For pipetting of the incubation mixture the robot Biomek (Fa. Beckman) was routinely used.
The optimal amount of enzyme in the assay has been determined and optimised for each enzyme preparation separately before using the enzyme in compound testing. For determination of IC50 values the Hill-plot, 2-parameter-model, was used.

T2 sequence (O00408 whole entry): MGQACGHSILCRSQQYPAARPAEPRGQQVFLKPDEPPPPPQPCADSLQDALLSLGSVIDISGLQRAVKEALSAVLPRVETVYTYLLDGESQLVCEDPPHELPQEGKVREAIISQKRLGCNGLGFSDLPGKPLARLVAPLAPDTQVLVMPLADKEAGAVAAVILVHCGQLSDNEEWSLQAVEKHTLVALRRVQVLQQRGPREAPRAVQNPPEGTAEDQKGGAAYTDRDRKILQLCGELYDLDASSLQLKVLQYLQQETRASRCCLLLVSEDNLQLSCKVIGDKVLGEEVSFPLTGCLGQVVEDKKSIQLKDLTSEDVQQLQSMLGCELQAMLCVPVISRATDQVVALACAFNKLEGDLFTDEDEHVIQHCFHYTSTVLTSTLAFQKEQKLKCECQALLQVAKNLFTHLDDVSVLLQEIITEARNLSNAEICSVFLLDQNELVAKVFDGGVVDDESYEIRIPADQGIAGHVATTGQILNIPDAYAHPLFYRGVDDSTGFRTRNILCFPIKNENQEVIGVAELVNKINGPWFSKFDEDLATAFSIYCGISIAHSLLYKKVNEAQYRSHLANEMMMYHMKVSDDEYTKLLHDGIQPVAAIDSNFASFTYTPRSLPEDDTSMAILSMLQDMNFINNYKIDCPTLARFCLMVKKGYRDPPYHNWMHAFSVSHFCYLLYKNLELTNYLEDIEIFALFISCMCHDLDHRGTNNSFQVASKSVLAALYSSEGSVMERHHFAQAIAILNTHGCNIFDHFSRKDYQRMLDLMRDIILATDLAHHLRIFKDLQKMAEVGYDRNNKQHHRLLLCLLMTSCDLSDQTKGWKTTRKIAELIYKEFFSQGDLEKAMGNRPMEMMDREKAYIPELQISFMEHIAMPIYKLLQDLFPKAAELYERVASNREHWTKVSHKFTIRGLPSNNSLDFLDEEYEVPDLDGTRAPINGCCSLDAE
T1 sequence (Q9Y233 other isoform, or with tags, fused parts or gaps): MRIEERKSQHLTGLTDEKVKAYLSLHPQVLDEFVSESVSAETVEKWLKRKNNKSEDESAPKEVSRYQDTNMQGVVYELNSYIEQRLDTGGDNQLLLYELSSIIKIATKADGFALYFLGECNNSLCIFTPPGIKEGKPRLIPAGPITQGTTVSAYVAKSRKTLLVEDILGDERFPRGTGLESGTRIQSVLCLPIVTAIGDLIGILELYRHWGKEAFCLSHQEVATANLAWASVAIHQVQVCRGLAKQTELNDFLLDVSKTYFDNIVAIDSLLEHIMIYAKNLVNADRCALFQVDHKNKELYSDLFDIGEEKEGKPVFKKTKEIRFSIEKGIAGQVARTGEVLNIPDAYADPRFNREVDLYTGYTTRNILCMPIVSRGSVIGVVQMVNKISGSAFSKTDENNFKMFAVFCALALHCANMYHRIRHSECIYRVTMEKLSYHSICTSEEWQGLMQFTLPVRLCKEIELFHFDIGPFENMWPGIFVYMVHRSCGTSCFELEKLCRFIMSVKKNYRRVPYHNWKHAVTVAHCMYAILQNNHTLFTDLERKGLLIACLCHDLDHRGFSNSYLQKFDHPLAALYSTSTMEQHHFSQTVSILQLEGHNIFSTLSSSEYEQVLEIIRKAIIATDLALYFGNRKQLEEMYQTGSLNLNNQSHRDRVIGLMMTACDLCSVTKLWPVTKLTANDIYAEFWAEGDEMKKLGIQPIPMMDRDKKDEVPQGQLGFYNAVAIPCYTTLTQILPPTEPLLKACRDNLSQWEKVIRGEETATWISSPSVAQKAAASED

As to `COc1ccc2nnc3c(C)nc(-c4cncc(C)c4)n3c2n1` [Example 33, 2-methoxy-7-methyl-9-(5-methylpyridin-3-yl)imidazo[5,1-c]pyrido[2,3-e][1,2,4]triazine], the values for the half-maximal inhibitory concentration (IC50) in assay [1] and in assay [2] were 51.5 nM and 14.4 nM, respectively.

With `COc1ccnc2c1nnc1c(C)nc(-c3cc(Cl)ccc3Cl)n12` [Example 113, 9-(2,5-dichlorophenyl)-4-methoxy-7-methylimidazo[5,1-c]pyrido[2,3-e][1,2,4]triazine], the half-maximal inhibitory concentration (IC50) (commonly the point on the concentration scale where inhibition reaches its midpoint) in assay [1] turned out to be 3.01 nM; in assay [2] it was 171 nM.

Regarding `COc1ccc2nnc3c(C)nc(-c4ccc(Cl)c(Cl)c4)n3c2n1` [Example 92, 9-(3,4-dichlorophenyl)-2-methoxy-7-methylimidazo[5,1-c]pyrido[2,3-e][1,2,4]triazine], the IC50 worked out at 231 nM in assay [1] and 660 nM in assay [2].

With `COc1ccc2nnc3c(C)nc(-c4cc(Cl)ccc4Cl)n3c2n1` [Example 9, 1-(2,5-dichlorophenyl)-8-methoxy-3-methyl-imidazo[5,1-c]-pyrido[2,3-e][1,2,4]triazine], the values for the IC50 in assay [1] and in assay [2] were 70.9 nM and 2.33 nM, respectively.

Take `COc1ccc2nnc3c(C)nc(-c4ccc(Cl)cc4Cl)n3c2n1` [Example 88, 9-(2,4-dichlorophenyl)-2-methoxy-7-methylimidazo[5,1-c]pyrido[2,3-e][1,2,4]triazine]: the figures for the IC50 in assay [1] and in assay [2] were 15 nM and 15.1 nM, respectively.

Take `COc1ccc2nnc3c(C)nc(-c4ccncc4OC)n3c2n1` [Example 52, 2-methoxy-9-(3-methoxypyridin-4-yl)-7-methylimidazo[5,1-c]pyrido[2,3-e][1,2,4]triazine]: the IC50 was determined as 225 nM in assay [1] and 165 nM in assay [2].

As to “8-Methoxy-3-methyl-1-(2-nitro-phenyl)-imidazo[5,1-c]pyrido[2,3-e][1,2,4]triazine [Example 106]”, the IC50 was 824 nM in assay [1] and 378 nM in assay [2].

Take `COc1ccc2nnc3c(C)nc(-c4cccc(Cl)c4)n3c2n1` [Example 93, 9-(3-chlorophenyl)-2-methoxy-7-methylimidazo[5,1-c]pyrido[2,3-e][1,2,4]triazine]: the IC50 in assay [1] is 46.8 nM; in assay [2], 45.8 nM.

As for `CCc1ccccc1-c1nc(C)c2nnc3ccc(OC)nc3n12` [Example 35, 9-(2-ethylphenyl)-2-methoxy-7-methylimidazo[5,1-c]pyrido[2,3-e][1,2,4]triazine], the half-maximal inhibitory concentration (IC50) in assay [1] came to 59.4 nM; in assay [2], 41.6 nM.

Turning to `COc1ccc2nnc3c(C)nc(-c4cncnc4)n3c2n1` [Example 80, 2-methoxy-7-methyl-9-pyrimidin-5-ylimidazo[5,1-c]pyrido[2,3-e][1,2,4]triazine], the results for the IC50 in assay [1] and in assay [2] were 5950 nM and 4070 nM, respectively.

For `COc1ccc2nnc3c(C)nc(-c4ccccc4C(N)=O)n3c2n1` [Example 103, 2-(2-methoxy-7-methylimidazo[5,1-c]pyrido[2,3-e][1,2,4]triazin-9-yl)benzamide], the IC50 is 1410 nM in assay [1] and 806 nM in assay [2].

With `COc1ccc2nnc3c(C)nc(-c4cccc(Cl)c4C)n3c2n1` [Example 94, 9-(3-chloro-2-methylphenyl)-2-methoxy-7-methylimidazo[5,1-c]pyrido[2,3-e][1,2,4]triazine], the results for the IC50 in assay [1] and in assay [2] were 69.2 nM and 89.5 nM, respectively.

With `COc1cc(-c2nc(C)c3nnc4ccc(OC)nc4n23)c(Cl)cn1` [Example 46, 9-(5-chloro-2-methoxypyridin-4-yl)-2-methoxy-7-methylimidazo[5,1-c]pyrido[2,3-e][1,2,4]triazine], the concentration for half-maximal inhibition (IC50) in assay [1] turned out to be 191 nM; in assay [2], 70.1 nM.

For the compound `COc1ccc2nnc3c(C)nc(-c4ccc5nccn5c4)n3c2n1` [Example 48, 9-imidazo[1,2-a]pyridin-6-yl-2-methoxy-7-methylimidazo[5,1-c]pyrido[2,3-e][1,2,4]triazine], the IC50 in assay [1] was 260 nM; in assay [2], 550 nM.

In the case of `Cc1nc(-c2cc(Cl)ccc2Cl)n2c1nnc1ccc(N3CCCC3)nc12` [Example 120, 1-(2,5-Dichloro-phenyl)-3-methyl-8-pyrrolidin-1-yl-imidazo[5,1-c]pyrido[2,3-e][1,2,4]triazine], the half-maximal inhibitory concentration (IC50) was determined as 48 nM in assay [1] and 3.24 nM in assay [2].

For the compound `COc1ccc2nnc3c(C)nc(-c4cc(Cl)ccc4OC)n3c2n1` [Example 98, 9-(5-chloro-2-methoxyphenyl)-2-methoxy-7-methylimidazo[5,1-c]pyrido[2,3-e][1,2,4]triazine], the IC50 in assay [1] is 86.9 nM; in assay [2], 62.9 nM.

For the compound `COc1ccc2nnc3c(C)nc(-c4ccccc4Oc4ccccc4)n3c2n1` [Example 105, 8-Methoxy-3-methyl-1-(2-phenoxy-phenyl)-imidazo[5,1-c]pyrido[2,3-e][1,2,4]triazine], the IC50 in assay [1] was determined as 817 nM; in assay [2], 61.7 nM.

For “1-(2-Chloro-pyridin-4-yl)-8-methoxy-3-methyl-imidazo[5,1-c]pyrido[2,3-e][1,2,4]triazine [Example 109]”, the IC50 came to 215 nM in assay [1] and 698 nM in assay [2].

Turning to `COc1cncc(-c2nc(C)c3nnc4ccc(OC)nc4n23)c1` [Example 40, 2-methoxy-9-(5-methoxypyridin-3-yl)-7-methylimidazo[5,1-c]pyrido[2,3-e][1,2,4]triazine], the IC50 was 91.3 nM in assay [1] and 14 nM in assay [2].

Take `COc1ccc2nnc3c(C)nc(-c4cc(C(C)C)ccc4OC)n3c2n1` [Example 16, 2-methoxy-9-[2-methoxy-5-(1-methylethyl)phenyl]-7-methylimidazo[5,1-c]pyrido[2,3-e][1,2,4]triazine]: the values for the IC50 in assay [1] and in assay [2] were 3330 nM and 274 nM, respectively.

For `COc1ccc2nnc3c(C)nc(-c4cccc(OC)c4F)n3c2n1` [Example 18, 9-(2-fluoro-3-methoxyphenyl)-2-methoxy-7-methylimidazo[5,1-c]pyrido[2,3-e][1,2,4]triazine], the results for the IC50 in assay [1] and in assay [2] were 160 nM and 109 nM, respectively.

Turning to `COc1ccc2nnc3c(C)nc(-c4ccc(C)cc4Cl)n3c2n1` [Example 61, 9-(2-chloro-4-methylphenyl)-2-methoxy-7-methylimidazo[5,1-c]pyrido[2,3-e][1,2,4]triazine], the results for the IC50 in assay [1] and in assay [2] were 21.6 nM and 7.54 nM, respectively.

Turning to `COc1ccc2nnc3c(C)nc(-c4cscc4C)n3c2n1` [Example 77, 2-methoxy-7-methyl-9-(4-methylthiophen-3-yl)imidazo[5,1-c]pyrido[2,3-e][1,2,4]triazine], the IC50 was determined as 43.6 nM in assay [1] and 51.2 nM in assay [2].

As for `COc1ccnc2c1nnc1c(C)nc(-c3cccnc3C)n12` [Example 116, 4-methoxy-7-methyl-9-(2-methylpyridin-3-yl)imidazo[5,1-c]pyrido[2,3-e][1,2,4]triazine], the IC50 in assay [1] is 15.1 nM; in assay [2], 1150 nM.

Take `COc1ccc2nnc3c(C)nc(-c4cc(C)ccc4Cl)n3c2n1` [Example 71, 9-(2-chloro-5-methylphenyl)-2-methoxy-7-methylimidazo[5,1-c]pyrido[2,3-e][1,2,4]triazine]: the IC50 in assay [1] was found to be 37.9 nM; in assay [2], 4.37 nM.

Take `COc1cc(F)cc(-c2nc(C)c3nnc4ccc(OC)nc4n23)c1` [Example 21, 9-(3-fluoro-5-methoxyphenyl)-2-methoxy-7-methylimidazo[5,1-c]pyrido[2,3-e][1,2,4]triazine]: the IC50 in assay [1] came to 50.4 nM; in assay [2], 37.8 nM.
